Measured values: patent US20060079453A1, “Hla binding peptides and their uses” (priority 2002, published 2006)
Like-named read-outs stand apart in the source and are kept apart here. No end group written: not given here.

Legend:
HLA-DR DRB1*0101 (DR1) = HLA-DR DRB1*0101 (DR1) (Homo sapiens, UniProt P01903+P01911, A100R/D57E/F55L/F60I/F76Y/I96L/L162R/M171V/P40L/Q125E/R42F/V115G/Y59C); experiment: biochemical; type: binding
HLA-DR DRB1*0401 (DR4) = HLA-DR DRB1*0401 (DR4) (Homo sapiens, UniProt P01903+P01911, A100K/A169T/F76Y/I96L/K127E/L162R/M171V/N62H/P40V/Q125Y/R42H/S133A/S149N/S66Y/V115G/V209L/W38E); experiment: biochemical; type: binding
HLA-DR DRB1*1101 (DR11) = HLA-DR DRB1*1101 (DR11) (Homo sapiens, UniProt P01903+P01911, A100R/A169T/A87E/I96F/K41T/L162R/M171V/P40S/Q125H/Q178H/Q39Y/Q99D/R42S/S66Y/T262R/V115G/W38E); experiment: biochemical; type: binding
HLA-DR DRB1*1101 (DR11), sequence (P01903 26-254 limits assumed, other chains not shown): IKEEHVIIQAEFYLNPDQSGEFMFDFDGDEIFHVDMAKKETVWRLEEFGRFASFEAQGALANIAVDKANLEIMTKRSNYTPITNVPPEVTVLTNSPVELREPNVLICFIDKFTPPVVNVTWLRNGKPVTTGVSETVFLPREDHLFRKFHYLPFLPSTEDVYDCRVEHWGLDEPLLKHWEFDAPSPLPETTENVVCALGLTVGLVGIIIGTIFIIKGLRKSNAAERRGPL

HLA-DR DRB5*0101 (DR51) = HLA-DR DRB5*0101 (DR51) (Homo sapiens, UniProt P01903+Q30154); experiment: biochemical; type: binding
HLA-DR DRB5*0201 = type: binding, human; conditions: read-out: DRB5 *0201
HLA-DR DRB1*0701 (DR7) = HLA-DR DRB1*0701 (DR7) (Homo sapiens, UniProt P01903+P01911, A100R/A102G/A103Q/D57E/D86V/E43K/F76Y/K127E/L162R/M171V/P40G/Q125H/Q99D/R33Q/R42Y/R54Q/S133A/S66F/T210M/V115G/Y107V/Y59L/Y89S); experiment: biochemical; type: binding
HLA-DR DRB3*0101 (DR52) = HLA-DR DRB3*0101 (DR52) (Homo sapiens, UniProt P01903+P79483); experiment: biochemical; type: binding
[1] = target: HLA-DQ DQA1*0301/B*0301 (DQ7) (Homo sapiens, UniProt P01909+P01920, A209T/C70Q/DUP78-78/E183D/F237L/G63E/I129T/K197E/L178F/L74F/L98V/Q57E/Q76R/S185I/S97I/T49S/V73L); experiment: biochemical; type: binding
HLA-DR DRB1*0301 (DR3) = HLA-DR DRB1*0301 (DR3) (Homo sapiens, UniProt P01903+P01911, A100K/A102G/A103R/A169T/F55Y/I96L/K41T/L162R/M171V/P40S/Q125H/Q178H/Q39Y/R42S/S66N/T106N/T262R/W38E/Y61H); experiment: biochemical; type: binding
HLA-DR DRB1*0301 (DR3), sequence (P01903 26-254 limits assumed, other chains not shown): as above

HLA-DR DRB1*0405 (DR4) = HLA-DR DRB1*0405 (DR4) (Homo sapiens, UniProt P01903+P01911, A100R/A169T/D86S/F76Y/I96L/K127E/L162R/M171V/N62H/P40V/Q125Y/R42H/S133A/S149N/S66Y/V115G/V209L/W38E); experiment: biochemical; type: binding; conditions: DRB1 *0405
HLA-DR DRB1*0802 (DR8) = HLA-DR DRB1*0802 (DR8) (Homo sapiens, UniProt P01903+P01911, A100R/A103L/A169T/F76Y/H45Y/I96F/K41T/L162R/M171V/P40S/Q125H/Q178H/Q39Y/Q99D/R218S/R42G/S66Y/V115G/W38E); experiment: biochemical; type: binding
HLA-DR DRB1*0901 (DR9) = HLA-DR DRB1*0901 (DR9) (Homo sapiens, UniProt P01903+P01911, A100R/A103E/D57H/D86V/F55Y/F60I/F76Y/I96F/K127E/L162R/M171V/P40D/Q125H/Q99R/R33Q/R42F/S133A/S66N/T210M/V115G/W38K/Y107V/Y59G/Y89S); experiment: biochemical; type: binding; conditions: DRB1 *0901
HLA-DR DRB1*1302 (DR13) = HLA-DR DRB1*1302 (DR13) (Homo sapiens, UniProt P01903+P01911, A100E/A169T/K41T/L162R/M171V/P40S/Q125H/Q178H/Q39Y/Q99D/R42S/S66N/T262R/V115G/W38E/Y61H); experiment: biochemical; type: binding; conditions: DRBI *1302
HLA-DR DRB1*1302 (DR13), sequence (P01903 26-254 limits assumed, other chains not shown): as above

HLA-DR DRB4*0101 (DR53) = HLA-DR DRB4*0101 (DR53) (Homo sapiens, UniProt P01903+P13762, G164S); experiment: biochemical; type: binding; conditions: DRB4 *0101
[2] = target: HLA-DQ DQA1*0501/B*0201 (DQ2) (Homo sapiens, UniProt P01909+P01920, A45G/A70V/D89A/E106A/E77G/E98D/H199R/L107V/N214S/P84L/P87L/T103K/T109R/T172A/T60S/V78E/V99I/Y58L/Y62S/Y69I/Y79F); experiment: biochemical
[3] = target: HLA-DQ DQA1*0301/B*0302 (DQ8) (Homo sapiens, UniProt P01909+P01920, A209T/A45G/C70Q/D89A/DUP78-78/E183D/E77G/F237L/G63E/H199R/I129T/K197E/L178F/L74F/L98V/Q57E/Q76R/S185I/S97I/T217I/T49S/V73L/Y58L); experiment: biochemical
HLA-DR DRB1*1501 (DR15) = HLA-DR DRB1*1501 (DR15) (Homo sapiens, UniProt P01903+P01911); experiment: biochemical; type: binding; conditions: DRBI *1501

Row | Substance | IC50 (HLA-DR DRB1*0101 (DR1); DRB1 *0101) [nM] | IC50 (HLA-DR DRB1*0301 (DR3)) [nM] | IC50 (HLA-DR DRB1*0401 (DR4); DRB1 *0401) [nM] | IC50 (HLA-DR DRB1*0405 (DR4)) [nM] | IC50 (HLA-DR DRB1*0701 (DR7); DRB1 *0701) [nM] | IC50 (HLA-DR DRB1*0802 (DR8)) [nM] | IC50 (HLA-DR DRB1*0901 (DR9)) [nM] | IC50 (HLA-DR DRB1*1101 (DR11); DRB1 *1101) [nM] | IC50 (HLA-DR DRB1*1302 (DR13)) [nM] | IC50 (HLA-DR DRB3*0101 (DR52)) [nM] | IC50 (HLA-DR DRB4*0101 (DR53)) [nM] | IC50 [1] [nM] | IC50 [2] [nM] | IC50 [3] [nM] | IC50 (HLA-DR DRB1*1501 (DR15)) [nM] | IC50 (HLA-DR DRB5*0101 (DR51); DRB5 *0101) [nM] | further results
1 | (15A)RQTTLKAAA |  |  |  |  |  |  |  |  |  |  |  |  |  |  |  |  | IC50 (HLA-DR DRB1*0101 (DR1); read-out: DRB1 *0101): 4.2 nM; IC50 (HLA-DR DRB1*0401 (DR4); read-out: DRB1 *0401): 0.31 nM; IC50 (HLA-DR DRB1*1101 (DR11); read-out: DRB1 *1101): 1.8 nM; IC50 (HLA-DR DRB5*0101 (DR51); read-out: DRB5 *0101): 9.5 nM; IC50 (HLA-DR DRB5*0201): 3100 nM
2 | AAFAAAKTAAAFA |  |  |  |  |  |  |  |  |  |  |  |  |  |  |  |  | IC50 (HLA-DR DRB1*0101 (DR1); read-out: DRB1 *0101): 1.3 nM; IC50 (HLA-DR DRB1*0401 (DR4); read-out: DRB1 *0401): 0.19 nM; IC50 (HLA-DR DRB1*0701 (DR7); read-out: DRB1 *0701): 67 nM; IC50 (HLA-DR DRB1*1101 (DR11); read-out: DRB1 *1101): 4.6 nM; IC50 (HLA-DR DRB3*0101 (DR52); read-out: DRB3 *0101): 20000 nM; IC50 (HLA-DR DRB5*0101 (DR51); read-out: DRB5 *0101): 25 nM; IC50 ([1]; read-out: DQB1*0301): 49 nM; IC50 (HLA-DR DRB5*0201): 6.4 nM
3 | GLALLSEAVLRGQAL [GLALLSEAVLRGQAL] | 83 | 816 | 11 | 1440 | 4610 | 2000 | 15100 | 2580 | 1220 | > 38200 | 3.5 | 107 | 6740 | 17000 |  |  | 
4 | GSHLVEALYLVCGER | 525 | > 187000 | 8290 | 4610 | 560 | > 54400 | 5390 | > 10500 | 8030 | > 18700 | 372 | > 89300 | 677 | 2490 | 1350 | 29300 | 
5 | IDVWLGGLAENFLPY |  |  |  |  |  |  |  |  |  |  |  | 204 | 13 | 138 |  |  | 
6 | IDVWLGGLAKNFLPY |  |  |  |  |  |  |  |  |  |  |  |  | > 4170 |  |  |  | 
7 | ISLLLIQSWLEPVQF | 184 | 27900 | 885 | 0.86 | 83 | > 33300 |  | 2680 | 120 | 6760 | 2.5 | > 89300 | 5230 | 562 | 60 | > 9960 | 
8 | LQLHVDKAVSGLRSL |  | 22 | 9.7 | 13600 | 3210 | 801 | > 78900 | 910 | 53 | 1040 | 31 | 88 | 7590 | 7840 | 2710 | 76 | 
9 | MSYNLLGFLQRSSNT |  | 108000 |  | 433 | 8870 | 900 | 8970 | 3070 | 1330 | 51800 | 4660 |  |  | > 51200 | 6.8 | 9 | 
10 | QHLCGSHLVEALYLV | 170 | 48600 | 13000 | 9820 | 86 | > 54400 | 7420 | > 10500 | 7620 | 14800 | 1480 | 2550 | 359 | 8410 |  | 32000 | 
11 | RLFDNASLRAHRLHQ | 89 | 97 | 77 |  |  | 15000 | 23800 |  | 84 | 11400 | 3210 |  |  | > 36200 | 85 | 557 | 
12 | SAAPLRTITADTFRK |  |  |  | 1460 | 3650 | 28100 |  |  |  |  |  | 301 | 1100 | > 46700 |  |  | 
13 | WKRMEVGQQAVEVWQ | 62 |  | 24 | 94 | 46100 |  | 14700 | 512 | 159 | > 42200 |  | 13700 | 159 | 12100 |  | 4300 | 
14 | YAR(15A)RQTTLKAAA |  |  |  |  |  |  |  |  |  |  |  |  |  |  |  |  | IC50 (HLA-DR DRB1*1101 (DR11); read-out: DRB1 *1101): 1.2 nM; IC50 (HLA-DR DRB5*0101 (DR51); read-out: DRB5 *0101): 0.94 nM; IC50 (HLA-DR DRB5*0201): 62 nM
15 | YAR(15A)SQTTLKAKT |  |  |  |  |  |  |  |  |  |  |  |  |  |  |  |  | IC50 (HLA-DR DRB1*0101 (DR1); read-out: DRB1 *0101): 2.4 nM; IC50 (HLA-DR DRB1*0401 (DR4); read-out: DRB1 *0401): 0.78 nM; IC50 (HLA-DR DRB1*1101 (DR11); read-out: DRB1 *1101): 2.5 nM; IC50 (HLA-DR DRB5*0101 (DR51); read-out: DRB5 *0101): 1.4 nM; IC50 (HLA-DR DRB5*0201): 48 nM
